{"source": "patent US6867197B1", "about": "“Method of targeting conjugate molecules to mitochondria” (Mitokor, priority 1995, dated 2005)", "origin": "cited, not measured here", "test_system": "mitochondria", "conditions": "high concentrations; NAO is a mitochondrial toxin at these concentrations", "data": [{"compound": "CCCCCCCCC[n+]1c2cc(N(C)C)ccc2cc2ccc(N(C)C)cc21", "note": "[NAO, 10N-nonylacridine orange]", "values": [{"measurement": "concentrations at which electron transport, ATP hydrolysis and Pi-transport are inhibited and respiration disrupted", "result": "3 to 10", "unit": "µM"}]}]}
